The target in this assay is SARS2 coronavirus 3CL protease (Severe acute respiratory syndrome coronavirus 2 (2019-nCoV) (SARS-CoV-2), UniProt P0DTD1). Briefly: SARS2 Coronavirus 3CL Protease Assay (FRET). Type of assay: biochemical. Particulars: SARS2 3CLPro FRET assay; 5 nM enzyme, 30 min pre-incubation with compound, 15 uM peptide substrate, 4 h room temperature.

Description: The enzymatic activity of SARS2 coronavirus 3CL protease was determined in a FRET (fluorescence resonance energy transfer)-based assay measuring the cleavage of a peptide substrate by recombinantly expressed and purified enzyme. Cleavage of the peptide SEQ ID NO:1 (CPC Scientific) by SARS2 3CL protease was measured in reaction buffer (50 mM Hepes pH 7.5, 0.01% Triton X-100, 0.01% BSA, 2 mM DTT). SARS2 3CL protease (5 nM final concentration) was pre-incubated with compound for 30 minutes before reaction initiation with peptide substrate (15 uM final concentration). Room temperature reactions (4 h) were quenched by addition of a high dose of inhibitor and read on an appropriate plate reader (excitation wavelength=495 nm, emission wavelength=520 nm). Data were analyzed by a standard 4 parameter fit to determine IC50 values.

Consider `COC(=O)N[C@H](C(=O)N1CC2(CCC(F)(F)CC2)CC1C(=O)N[C@@H](CCC(C)(F)F)C(=O)C(=O)NC1CC1)C(C)(C)C` (single isomer, unassigned) [Example 56, Methyl ((S)-1-((R or S)-(3-(((S)-1-(cyclopropylamino)-6,6-difluoro-1,2-dioxoheptan-3-yl)carbamoyl)-8,8-difluoro-2-azaspiro[4.5]decan-2-yl)-3,3-dimethyl-1-oxobutan-2-yl)carbamate], for which the IC50 worked out at 291 nM.

With `COC(=O)N[C@H](C(=O)N1CC(C2COC2)C[C@H]1C(=O)N[C@@H](CCC(C)(F)F)C(=O)C(=O)NC1CC1)C(C)(C)C` (single isomer, unassigned) [Example 57, Methyl ((S)-1-((2S, 4(R or S))-2-(((S)-1-(cyclopropylamino)-6,6-difluoro-1,2-dioxoheptan-3-yl)carbamoyl)-4-(oxetan-3-yl)pyrrolidin-1-yl)-3,3-dimethyl-1-oxobutan-2-yl)carbamate], the IC50 was determined as 305 nM.

On to `COC(=O)N[C@H](C(=O)N1CCC(O)(C(F)(F)F)C[C@H]1C(=O)N[C@@H](CCC(C)(F)F)C(=O)C(=O)NC1CC1)C(C)(C)C` (single isomer, unassigned) [Example 58, Methyl ((S)-1-((2S, 4(R or S))-2-(((S)-1-(cyclopropylamino)-6,6-difluoro-1,2-dioxoheptan-3-yl)carbamoyl)-4-hydroxy-4-(trifluoromethyl)piperidin-1-yl)-3,3-dimethyl-1-oxobutan-2-yl)carbamate], for which the IC50 was found to be 347 nM. The value for `COC(=O)NC(C(=O)N1CC2(CCCCC2)C[C@H]1C(=O)N[C@@H](CCC(C)(F)F)C(=O)C(=O)NC1CC1)C1CCC1` (single isomer, unassigned) [Example 63, Methyl ((R or S)-1-cyclobutyl-2-((S)-3-(((S)-1-(cyclopropylamino)-6,6-difluoro-1,2-dioxoheptan-3-yl)carbamoyl)-2-azaspiro[4.5]decan-2-yl)-2-oxoethyl)carbamate] was 32 nM; that for `CCC1CCN(C(=O)[C@@H](NC(=O)OC)C(C)(C)C)C1C(=O)N[C@@H](CCC(C)(F)F)C(=O)C(=O)NC1CC1` (single isomer, unassigned) [Example 72, Methyl ((S)-1-((2(R or S),3(R or S))-2-(((S)-1-(cyclopropylamino)-6,6-difluoro-1,2-dioxoheptan-3-yl)carbamoyl)-3-ethylpyrrolidin-1-yl)-3,3-dimethyl-1-oxobutan-2-yl)carbamate] was 48 nM; that for `COC(=O)N[C@H](C(=O)N1CCC(C)(C)C1C(=O)N[C@@H](CCC(C)(F)F)C(=O)C(=O)NC1CC1)C(C)(C)C` (single isomer, unassigned) [Example 73, Methyl ((S)-1-((R or S)-2-(((S)-1-(cyclopropylamino)-6,6-difluoro-1,2-dioxoheptan-3-yl)carbamoyl)-3,3-dimethylpyrrolidin-1-yl)-3,3-dimethyl-1-oxobutan-2-yl)carbamate] was 60 nM. Take `COC(=O)N[C@H](C(=O)N1C(C(=O)N[C@@H](CCC(C)(F)F)C(=O)C(=O)NC2CC2)[C@H]2CC[C@@H]1C2)C(C)(C)C` (single isomer, unassigned) [Example 77, Methyl ((S)-1-((1R, 3(R or S),4S)-3-(((S)-1-(cyclopropylamino)-6,6-difluoro-1,2-dioxoheptan-3-yl)carbamoyl)-2-azabicyclo[2.2.1]heptan-2-yl)-3,3-dimethyl-1-oxobutan-2-yl)carbamate]: the IC50 worked out at 133 nM. The value for `COC(=O)N[C@H](C(=O)N1CC(C(F)(F)F)CCC1C(=O)N[C@@H](CCC(C)(F)F)C(=O)C(=O)NC1CC1)C(C)(C)C` (single isomer, unassigned) [Example 82, methyl ((S)-1-((2S,5S or 2R,5R)-2-(((S)-1-(cyclopropylamino)-6,6-difluoro-1,2-dioxoheptan-3-yl)carbamoyl)-5-(trifluoromethyl)piperidin-1-yl)-3,3-dimethyl-1-oxobutan-2-yl)carbamate] was 51 nM. The value for `COC(=O)N[C@H](C(=O)N1CCC2CC2[C@H]1C(=O)N[C@@H](CCC(C)(F)F)C(=O)C(=O)NC1CC1)C(C)(C)C` (single isomer, unassigned) [Example 83, methyl ((S)-1-((1R,2S,6R or 1R,2S,6S)-2-(((S)-1-(cyclopropylamino)-6,6-difluoro-1,2-dioxoheptan-3-yl)carbamoyl)-3-azabicyclo[4.1.0]heptan-3-yl)-3,3-dimethyl-1-oxobutan-2-yl)carbamate] was 83 nM; that for `COC(=O)N[C@H](C(=O)N1CC2CC2C[C@H]1C(=O)N[C@@H](CCC(C)(F)F)C(=O)C(=O)NC1CC1)C(C)(C)C` (single isomer, unassigned) [Example 84, methyl ((S)-1-((1S,4S,6S or 1R,4S,6R)-4-(((S)-1-(cyclopropylamino)-6,6-difluoro-1,2-dioxoheptan-3-yl)carbamoyl)-3-azabicyclo[4.1.0]heptan-3-yl)-3,3-dimethyl-1-oxobutan-2-yl)carbamate] was 96 nM. The value for `COC(=O)N[C@H](C(=O)N1CCCC(C2CC2)C1C(=O)N[C@@H](CCC(C)(F)F)C(=O)C(=O)NC1CC1)C(C)(C)C` (single isomer, unassigned) [Example 90, methyl ((S)-1-((2S,3R or 2R,3S)-3-cyclopropyl-2-(((S)-1-(cyclopropylamino)-6,6-difluoro-1,2-dioxoheptan-3-yl)carbamoyl)piperidin-1-yl)-3,3-dimethyl-1-oxobutan-2-yl)carbamate] was 16 nM. Regarding `CNC(=O)C(=O)[C@H](CCC(C)(F)F)NC(=O)[C@@H]1CC2(CN1C(=O)[C@@H](NC(=O)OC)C(C)(C)C)CC2(F)F` (single isomer, unassigned) [Example 93, methyl ((S)-1-((3(S or R),6S)-6-(((S)-6,6-difluoro-1-(methylamino)-1,2-dioxoheptan-3-yl)carbamoyl)-1,1-difluoro-5-azaspiro[2.4]heptan-5-yl)-3,3-dimethyl-1-oxobutan-2-yl)carbamate], the IC50 was 28 nM. The value for `CNC(=O)C(=O)[C@H](CCC(C)(F)F)NC(=O)C1C2CC(C)(C)C2CN1C(=O)[C@@H](NC(=O)OC)C(C)(C)C` (single isomer, unassigned) [Example 95, methyl ((S)-1-((1S,2S,5S or 1R,2R,5R)-2-(((S)-6,6-difluoro-1-(methylamino)-1,2-dioxoheptan-3-yl)carbamoyl)-6,6-dimethyl-3-azabicyclo[3.2.0]heptan-3-yl)-3,3-dimethyl-1-oxobutan-2-yl)carbamate] was 5 nM; that for `CNC(=O)C(=O)[C@H](CCC(C)(F)F)NC(=O)C1CC(C)(F)CCN1C(=O)[C@@H](NC(=O)OC)C(C)(C)C` (single isomer, unassigned) [Example 97, methyl ((S)-1-((2S,4S or 2R,4R)-2-(((S)-6,6-difluoro-1-(methylamino)-1,2-dioxoheptan-3-yl)carbamoyl)-4-fluoro-4-methylpiperidin-1-yl)-3,3-dimethyl-1-oxobutan-2-yl)carbamate] was 19 nM.

For the compound `COC(=O)N[C@H](C(=O)N1CC2(C(F)(F)F)CCCC2C1C(=O)N[C@@H](CCC(C)(F)F)C(=O)C(=O)NC1CC1)C(C)(C)C` (single isomer, unassigned) [Example 98, methyl ((S)-1-((1S,3aS,6aS or 1R,3aR,6aR)-1-(((S)-1-(cyclopropylamino)-6,6-difluoro-1,2-dioxoheptan-3-yl)carbamoyl)-3a-(trifluoromethyl)hexahydrocyclopenta[c]pyrrol-2(1H)-yl)-3,3-dimethyl-1-oxobutan-2-yl)carbamate], the IC50 is 77 nM. Take `COC(=O)N[C@H](C(=O)N1CC2CCC(C1C(=O)N[C@@H](CCC(C)(F)F)C(=O)C(=O)NC1CC1)C2(F)F)C(C)(C)C` (single isomer, unassigned) [Example 99, methyl ((S)-1-((1(S or R),2(S or R),5(R or S))-2-(((S)-1-(cyclopropylamino)-6,6-difluoro-1,2-dioxoheptan-3-yl)carbamoyl)-8,8-difluoro-3-azabicyclo[3.2.1]octan-3-yl)-3,3-dimethyl-1-oxobutan-2-yl)carbamate]: the IC50 was 100 nM.

Consider `[2H]C([2H])([2H])NC(=O)C(=O)[C@H](CCC(C)(F)F)NC(=O)C1CC(C(F)(F)F)CCN1C(=O)[C@@H](NC(=O)OC([2H])([2H])[2H])C(C)(C)C` (single isomer, unassigned) [Example 100, methyl-d3 ((S)-1-((2(S or R),4(S or R))-2-(((S)-6,6-difluoro-1-((methyl-d3)amino)-1,2-dioxoheptan-3-yl)carbamoyl)-4-(trifluoromethyl)piperidin-1-yl)-3,3-dimethyl-1-oxobutan-2-yl)carbamate], for which the IC50 amounted to 14 nM. As for `CNC(=O)C(=O)[C@H](CCC(C)(F)F)NC(=O)[C@@H]1CC2(CCC2(F)F)CN1C(=O)[C@@H](NC(=O)OC)C(C)(C)C` (single isomer, unassigned) [Example 103, methyl ((S)-1-((4(S or R),7S)-7-(((S)-6,6-difluoro-1-(methylamino)-1,2-dioxoheptan-3-yl)carbamoyl)-1,1-difluoro-6-azaspiro[3.4]octan-6-yl)-3,3-dimethyl-1-oxobutan-2-yl)carbamat], the figure is 32 nM. On to `CNC(=O)C(=O)[C@H](CCC(C)(F)F)NC(=O)C1C2CC(F)(F)CC2CN1C(=O)[C@@H](NC(=O)OC)C(C)(C)C` (single isomer, unassigned) [Example 105, methyl ((S)-1-((1S,3aR,6aS or 1R,3aS,6aR or 1S,3aS,6aR or 1R,3aR,6aS)-1-(((S)-6,6-difluoro-1-(methylamino)-1,2-dioxoheptan-3-yl)carbamoyl)-5,5-difluorohexahydrocyclopenta[c]pyrrol-2(1H)-yl)-3,3-dimethyl-1-oxobutan-2-yl)carbamate], for which the IC50 came to 11 nM.

Broadly, the IC50 is the concentration that inhibits the measured activity by half.

These data come from patent publication US20250223259A1, “PROTEASE INHIBITORS FOR TREATING OR PREVENTING CORONAVIRUS INFECTION” (Merck Sharp & Dohme LLC, priority 2022, published 2025).
